The text below walks through data of ChEMBL document CHEMBL1155734, “Multiplolides A and B, new antifungal 10-membered lactones from Xylaria multiplex” (J Nat Prod, 2001).

Values after ≈ are worked out from the molar mass of the structure shown. Active and inactive are the calls of the source. The calls are words filed in the database; no cut-off is given here.

One experiment has as its system Candida albicans. Briefly: Antifungal activity against Candida albicans by colorimetric method. It counts as functional, organism-based.
The subject of experiment [1] is Plasmodium falciparum. Briefly: Antimalarial activity as growth inhibition of Plasmodium falciparum K1 by [3H]hypoxanthine uptake. It counts as functional, organism-based.
The next experiment concerns KB. Briefly: Cytotoxicity against human KB cells at 20 ug/mL. It counts as functional, cell-based.
In another experiment the test system is BC1. Briefly: Cytotoxicity against human BC1 cells at 20 ug/mL. The format is functional, cell-based.
The test system of experiment [2] is Plasmodium falciparum. Briefly: Antimalarial activity as growth inhibition of Plasmodium falciparum K1 at 20 ug/mL by [3H]hypoxanthine uptake. It counts as functional, organism-based.

Take `C[C@@H]1[C@H](O)[C@@H](C)/C=C/C=C/C=C/C=C/C=C/C=C/C=C/[C@H](O[C@@H]2O[C@H](C)[C@@H](O)[C@H](N)[C@@H]2O)C[C@@H]2O[C@](O)(C[C@@H](O)C[C@@H](O)[C@H](O)CC[C@@H](O)C[C@@H](O)CC(=O)O[C@H]1C)C[C@H](O)[C@H]2C(=O)O` [AMPHOTERICIN B]: the 50% inhibitory concentration (IC50) in the experiment with Candida albicans amounted to 0.01 µg/mL (≈ 0.0108 µM).

In the experiment on Plasmodium falciparum [1], `C[C@@H]1CC[C@H]2[C@@H](C)C(=O)O[C@@H]3O[C@@]4(C)CC[C@@H]1[C@]32OO4` [ARTEMISININ] displayed a half-maximal inhibitory concentration (IC50) of 1 ng/mL (≈ 0.00354 µM).

`C[C@@H]1C[C@@H](O)[C@@H](O)/C=C/[C@@H]2O[C@@H]2C(=O)O1` [MULTIPLOLIDE A]: the result in the experiment on KB, in the experiment with BC1 and in the experiment with Plasmodium falciparum [2] was inactive. In the experiment with Candida albicans, this compound yielded an IC50 of 7 µg/mL (≈ 32.7 µM).

As to `C/C=C/C(=O)O[C@@H]1C[C@@H](C)OC(=O)C2OC2/C=C/[C@@H]1O` (stereo not given in full) [MULTIPLOLIDE B], the result in the experiment on KB, with BC1 and in the experiment with Plasmodium falciparum [2] was inactive. Besides, the half-inhibitory concentration (IC50) with Candida albicans was found to be 2 µg/mL (≈ 7.08 µM).
